Consider twelve molecules from ChEMBL document CHEMBL3097995, “NAD-based inhibitors with anticancer potential” (Bioorg Med Chem Lett, 2014).

One test concerns PC-3. The test is described as follows: Antiproliferative activity against human PC3 cells. It is filed as functional, cell-based.
A further test deals with DU-145. Description: Antiproliferative activity against human DU145 cells. It is filed as functional, cell-based.
The target in test [1] is Inosine-5'-monophosphate dehydrogenase 1 (Homo sapiens, UniProt P20839). Description: Inhibition of IMPDH1 (unknown origin).
Test [2] concerns the target Inosine-5'-monophosphate dehydrogenase 2 (Homo sapiens, UniProt P12268). The test is described as follows: Inhibition of IMPDH2 (unknown origin).
In another test the test system is K562. The test is described as follows: Antiproliferative activity against human K562 cells. It is filed as functional, cell-based.
Another test deals with HL-60. The test is described as follows: Antiproliferative activity against human HL60 cells. It counts as functional, cell-based.

Some results are limits rather than exact numbers.

Chain of Inosine-5'-monophosphate dehydrogenase 1 (P20839 whole entry): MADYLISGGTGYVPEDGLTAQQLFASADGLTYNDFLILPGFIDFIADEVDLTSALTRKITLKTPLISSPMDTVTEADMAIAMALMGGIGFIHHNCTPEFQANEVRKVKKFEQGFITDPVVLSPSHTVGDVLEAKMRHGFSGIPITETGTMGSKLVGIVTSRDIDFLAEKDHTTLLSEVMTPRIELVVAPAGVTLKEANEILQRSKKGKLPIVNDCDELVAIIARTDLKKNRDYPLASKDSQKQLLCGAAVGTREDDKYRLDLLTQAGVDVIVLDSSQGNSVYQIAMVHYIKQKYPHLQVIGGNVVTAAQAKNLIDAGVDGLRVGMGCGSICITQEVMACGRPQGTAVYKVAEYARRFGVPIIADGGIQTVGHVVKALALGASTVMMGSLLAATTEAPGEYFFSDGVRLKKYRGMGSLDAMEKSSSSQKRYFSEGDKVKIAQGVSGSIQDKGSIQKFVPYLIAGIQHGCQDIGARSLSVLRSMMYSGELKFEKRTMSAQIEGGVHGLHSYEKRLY

For the molecule `COc1c(C)c2c(c(O)c1C/C=C(\C)CCC(=O)N[C@@H](C(=O)O)C(C)C)C(=O)OC2`, the IC50 in the test on PC-3, in the test on DU-145, in the test with K562 and in the test on HL-60 was above 100 µM throughout. Besides, the values for the Ki in test [1] and in test [2] were 2.03 µM and 1.23 µM, respectively.

As for `COC(=O)[C@@H](Cc1ccccc1)NC(=O)CC/C(C)=C/Cc1c(O)c2c(c(C)c1OC)COC2=O`, the IC50 was determined as 70 µM in the test with PC-3, 10 µM with DU-145, 29 µM with K562 and 41 µM in the test on HL-60. Also, the results for the Ki in test [1] and in test [2] were 5.56 µM and 2.4 µM, respectively.

`COc1c(C)c2c(c(O)c1C/C=C(\C)CCC(=O)NCC(=O)O)C(=O)OC2`: the IC50 with PC-3 was above 100 µM; with DU-145, above 100 µM; in the test with K562, 10 µM; in the test on HL-60, above 100 µM. The Ki in test [1] amounted to 0.892 µM; in test [2] it was 0.321 µM.

Take `COC(=O)[C@H](Cc1ccc(O)cc1)NC(=O)CC/C(C)=C/Cc1c(O)c2c(c(C)c1OC)COC2=O`: the IC50 in the test on PC-3 worked out at 11 µM; in the test with DU-145, 6.3 µM; in the test with K562, 6.8 µM; in the test with HL-60, 4.7 µM. The Ki in test [1] was 1.83 µM; in test [2], 0.364 µM.

In the case of `COc1c(C)c2c(c(O)c1C/C=C(\C)CCC(=O)N[C@@H](Cc1ccccc1)C(=O)O)C(=O)OC2`, the IC50 in the test with PC-3, with DU-145, with K562 and with HL-60 was above 100 µM throughout. For the same molecule, the Ki in test [1] was 0.854 µM; in test [2], 0.163 µM.

Regarding `COC(=O)[C@@H](NC(=O)CC/C(C)=C/Cc1c(O)c2c(c(C)c1OC)COC2=O)C(C)C`, the IC50 is above 100 µM in the test on PC-3, 39 µM in the test with DU-145, 8.3 µM with K562 and 31 µM with HL-60. Also, the Ki in test [1] was 3.77 µM; in test [2], 0.967 µM.

Turning to `COc1c(C)c2c(c(O)c1C/C=C(\C)CCC(=O)N[C@@H](Cc1c[nH]c3ccccc13)C(=O)O)C(=O)OC2`, the IC50 with PC-3, with DU-145, with K562 and with HL-60 was above 100 µM throughout. Besides, the inhibitory constant (Ki) in test [1] was 0.056 µM; in test [2], 0.235 µM.

As for `COc1c(C)c2c(c(O)c1C/C=C(\C)CCC(=O)N[C@@H](CCSC)C(=O)O)C(=O)OC2`, the half-maximal inhibitory concentration (IC50) with PC-3, with DU-145, in the test on K562 and in the test with HL-60 was above 100 µM in each case. The figures for the Ki in test [1] and in test [2] were 5.13 µM and 0.134 µM, respectively.

In the case of `COc1c(C)c2c(c(O)c1C/C=C(\C)CCC(=O)N[C@@H](Cc1ccccc1)C(=O)NC[C@H]1O[C@@H](n3cnc4c(N)ncnc43)[C@H](O)[C@@H]1O)C(=O)OC2`, the IC50 with PC-3, with DU-145, with K562 and in the test with HL-60 was above 100 µM in each case. The Ki is 0.259 µM in test [1] and 0.188 µM in test [2].

With `COc1c(C)c2c(c(O)c1C/C=C(\C)CCC(=O)N[C@H](Cc1c[nH]c3ccccc13)C(=O)NC[C@H]1O[C@@H](n3cnc4c(N)ncnc43)[C@H](O)[C@@H]1O)C(=O)OC2`, the IC50 in the test with PC-3, with DU-145, in the test on K562 and in the test on HL-60 was above 100 µM each time. Besides, the Ki in test [1] stood at 0.056 µM; in test [2], 0.04 µM.

With `COC(=O)[C@H](CCSC)NC(=O)CC/C(C)=C/Cc1c(O)c2c(c(C)c1OC)COC2=O`, the IC50 was 8.7 µM in the test on DU-145, 3 µM in the test on K562 and 4.5 µM in the test with HL-60. Moreover, the figures for the Ki in test [1] and in test [2] were 2.2 µM and 0.147 µM, respectively.

For the molecule `COc1c(C)c2c(c(O)c1C/C=C(\C)CCC(=O)N1CCC[C@H]1C(=O)O)C(=O)OC2`, the Ki in test [1] amounted to 0.906 µM; in test [2], 0.524 µM.
